Reference: US10525139B2, “Folate-conjugated molecules for delivery of toxic small molecule inhibitors to cancer cells and methods of use” (priority 2014, dated 2020)
“Also recorded” adds a separate entry of the source.

What was measured:
NOTCH1 [1] = assay: NOTCH1 processing and activation by western blot (FL-N1, TM-N1, ICN1); format: cell-based, human
Description: (§1) We previously described that the SERCA inhibitors thapsigargin and cyclopiazonic acid impair NOTCH1 maturation leading to an accumulation of full-length, unprocessed polypeptides in the endoplasmic reticulum/Golgi subcellular compartment. An immediate consequence of SERCA inhibition is a decrement in NOTCH1 protein display on the surface of T-ALL cells. […] To further support the hypothesis that Thap-OH impairs mutant NOTCH1 maturation, we evaluated levels of full-length, transmembrane and activated NOTCH1 (ICN1) by WB. Lysates from T-ALL cell lines treated with 1 μM Thap-OH were immunoblotted with an antibody specific for the cytoplasmic portion of NOTCH1 that recognizes both unprocessed NOTCH1 (FL-N1) (˜270 kDa) and the furin-processed transmembrane subunit (TM-N1) (˜110 kDa).
Both Folate-Thap (JQ-FT) and Thap-OH were tested in T-ALL cell lines with 24 h treatment. […] Lysates were prepared after treatment with indicated doses of thapsigargin, JQ-FT or Thap-OH for 24 hr. The blot shown was stained with an antibody against the C-terminus of NOTCH1 that recognizes both the furin-processed NOTCH1 transmembrane subunit (TM) and the unprocessed NOTCH1 precursor (FL) (FIG. 2A). GAPDH was used as a loading control. Western blots were stained with antibodies specific for γ-secretase-cleaved NOTCH 1 ([…], Cell Signaling, Beverly, Mass., USA), or the C-terminus of NOTCH1 (SC-6014 (C-20) Santa Cruz Biotechnology, Santa Cruz, Calif., USA). Control stains were carried out with antibodies specific for GAPDH (137179, Santa Cruz Biotechnology). Blots were developed with anti-rabbit-HRP (NA9340V, Amersham, Pittsburgh, Pa., USA) or anti-mouse-HRP (NA9340V or NA9310V, Amersham). Staining was quantified using ImageQuant TI V 7.0 (GE Health Care, Piscataway, N.J., USA).

FR2 = FR2 expression by western blot after Thap-OH; format: cell-based, human; settings: T-ALL cell lines, increasing concentrations of Thap-OH, 24 hours
Procedure: Thapsigargin is a known inducer of the unfolded protein response (UPR). As such, its derivatives may trigger a cellular response that affects the stable expression or trafficking of folate receptors. To exclude that FR2 is a target of UPR, we treated T-ALL cell lines with increasing concentrations of Thap-OH for 24 hours.

SERCA2 = molecular target: T1, SERCA2 (Homo sapiens, UniProt P16615); assay: Competitive pull-down with Thap-Biotin in T-ALL lysates, immunoblot; format: binding; settings: ALL/SIL lysates, increasing concentrations of free Thap-OH
T1 construct: Lysates from T-ALL cells (ALL/SIL) were co-treated with the indicated concentrations of biotinylated thapsigargin or Thap-OH; endogenous in cells; host or cells: ALL/SIL T-ALL cells (lysate)
T1 sequence (P16615 whole entry): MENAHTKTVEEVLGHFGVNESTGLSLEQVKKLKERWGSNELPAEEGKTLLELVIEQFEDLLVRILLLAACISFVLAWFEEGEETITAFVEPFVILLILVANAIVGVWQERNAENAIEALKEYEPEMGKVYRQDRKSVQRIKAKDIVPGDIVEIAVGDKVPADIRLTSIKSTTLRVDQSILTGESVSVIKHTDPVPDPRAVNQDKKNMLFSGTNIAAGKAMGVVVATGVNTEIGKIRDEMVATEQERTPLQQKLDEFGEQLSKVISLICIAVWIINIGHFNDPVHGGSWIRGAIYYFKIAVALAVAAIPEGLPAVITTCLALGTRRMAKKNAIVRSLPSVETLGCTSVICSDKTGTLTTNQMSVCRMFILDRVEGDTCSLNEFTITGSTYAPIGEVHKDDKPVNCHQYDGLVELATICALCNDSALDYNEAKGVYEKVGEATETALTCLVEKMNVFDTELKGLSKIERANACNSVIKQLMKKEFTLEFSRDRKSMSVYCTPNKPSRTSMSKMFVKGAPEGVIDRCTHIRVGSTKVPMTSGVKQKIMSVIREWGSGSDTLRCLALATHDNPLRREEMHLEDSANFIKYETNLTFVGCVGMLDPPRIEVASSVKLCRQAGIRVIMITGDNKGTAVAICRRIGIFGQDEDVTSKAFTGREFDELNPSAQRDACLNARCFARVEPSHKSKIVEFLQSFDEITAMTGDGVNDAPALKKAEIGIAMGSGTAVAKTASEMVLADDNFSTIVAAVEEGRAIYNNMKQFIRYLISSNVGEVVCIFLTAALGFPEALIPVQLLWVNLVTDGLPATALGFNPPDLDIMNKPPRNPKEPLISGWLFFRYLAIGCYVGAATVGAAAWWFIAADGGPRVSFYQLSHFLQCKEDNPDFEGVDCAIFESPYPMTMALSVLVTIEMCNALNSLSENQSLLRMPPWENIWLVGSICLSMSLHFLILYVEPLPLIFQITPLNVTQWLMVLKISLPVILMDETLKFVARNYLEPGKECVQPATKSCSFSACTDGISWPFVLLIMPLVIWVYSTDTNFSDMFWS
Procedure: (§2) Lysates from T-ALL cells (ALL/SIL) were co-treated with the indicated concentrations of biotinylated thapsigargin or Thap-OH for 6 hours and subjected to streptavidin pulldown for 24 hours. The immunoblot was stained with SERCA2 and SERCA3 antibodies. […] Statistical significance for mutated vs WT (*P≤:0.05, **P≤0.01) was determined by one-way ANOVA with Bonferroni's correction for multiple comparison testing. […] NOTCH1 (N1) was detected with an antibody against the C-terminus of NOTCH1 that recognizes the […] NOTCH1 transmembrane subunit (TM) and the unprocessed NOTCH1 precursor (FL). GAPDH was used as loading control. […] Immunoblot was stained with an antibody against FR2. Vinculin was used as a loading control.
(§3) To test the hypothesis that Thap-OH targets SERCA in T-ALL cells, we first performed a competitive pull-down assay in which protein lysates were treated with a novel biotinylated derivative of thapsigargin (Thap-Biotin), alone or in the presence of increasing concentrations of free, competitive Thap-OH.

SERCA3 = molecular target: T2, SERCA3 (Homo sapiens, UniProt Q93084); assay: as above; format: binding; settings: ALL/SIL lysates, increasing concentrations of free Thap-OH
T2 construct: Lysates from T-ALL cells (ALL/SIL) were co-treated with the indicated concentrations of biotinylated thapsigargin or Thap-OH; endogenous in cells; host or cells: ALL/SIL T-ALL cells (lysate)
T2 sequence (Q93084 whole entry): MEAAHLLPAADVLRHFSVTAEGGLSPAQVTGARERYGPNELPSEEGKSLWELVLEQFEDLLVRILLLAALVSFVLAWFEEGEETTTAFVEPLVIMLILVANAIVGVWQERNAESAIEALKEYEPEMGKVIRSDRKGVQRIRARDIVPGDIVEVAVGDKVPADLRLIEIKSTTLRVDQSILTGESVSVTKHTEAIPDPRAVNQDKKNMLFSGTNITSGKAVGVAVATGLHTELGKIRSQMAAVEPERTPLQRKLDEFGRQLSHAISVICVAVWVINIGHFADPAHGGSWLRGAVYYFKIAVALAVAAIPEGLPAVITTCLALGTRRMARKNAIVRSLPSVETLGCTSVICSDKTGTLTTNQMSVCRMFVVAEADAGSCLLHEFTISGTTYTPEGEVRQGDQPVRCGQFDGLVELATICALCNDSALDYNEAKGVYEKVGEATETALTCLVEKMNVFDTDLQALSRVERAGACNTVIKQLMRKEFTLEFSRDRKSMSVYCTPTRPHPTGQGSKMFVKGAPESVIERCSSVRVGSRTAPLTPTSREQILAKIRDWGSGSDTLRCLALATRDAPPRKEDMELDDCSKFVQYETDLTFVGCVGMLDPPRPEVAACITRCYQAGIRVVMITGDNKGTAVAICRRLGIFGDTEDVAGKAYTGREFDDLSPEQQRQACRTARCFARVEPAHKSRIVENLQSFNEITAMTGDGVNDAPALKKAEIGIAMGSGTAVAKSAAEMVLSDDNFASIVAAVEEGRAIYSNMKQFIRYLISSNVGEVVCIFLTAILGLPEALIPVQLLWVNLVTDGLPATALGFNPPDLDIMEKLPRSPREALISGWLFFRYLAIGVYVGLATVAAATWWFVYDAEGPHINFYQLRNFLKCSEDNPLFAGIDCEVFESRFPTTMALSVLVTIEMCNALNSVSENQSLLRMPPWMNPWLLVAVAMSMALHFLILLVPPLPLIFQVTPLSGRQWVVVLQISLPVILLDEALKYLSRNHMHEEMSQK
Procedure: as §2, §3

NOTCH1 [2] = assay: NOTCH1 cell surface staining by flow cytometry; format: cell-based, human; settings: T-ALL cells; for NOTCH1 expression on the cell surface: 24 hours
Description: as §1
(§4) The NOTCH loss was measured via flow cytometry. […] The recapitulation of the thapsigargin effect by JQ-FT is hypothesized to be due to the delivery strategy introduced by folate. […] Here cell growth was assessed using the Promega Cell-Titer Glo ATP-based assay (Promega, Madison, Wis., USA). Luminescence was measured using a Fluostar Omega instrument (BMG-labtech, Ortenberg, Germany).

T-ALL cell lines [3] = assay: T-ALL cell viability / growth (ATP content, Cell-Titer Glo); format: cell-based, human; settings: 72 hours
Procedure: Thus, cell lines carrying NOTCH1 alleles with HD domain, mutations were more sensitive to Thap-OH than cells with WT NOTCH1 alleles.
As a further test of the idea that JQ-FT acts by preventing NOTCH1 activation in a manner similar to thapsigargin, the NOTCH1-dependent T-ALL cell lines RPMI-8402 were transduced with empty MigRI vector or with ICN1, which lies downstream of the γ-secretase cleavage step in Notch activation. Viral supernatant production and retroviral infections were performed as described for MigRI retroviral vectors (Aster, J. C., et al. “Essential roles for ankyrin repeat and transactivation domains in induction of T-cell leukemia by NOTCH1.” Mol. Cell. Biol. 2000; 20:7505-7515). Transduction efficiency for MigRI was monitored by assessing GFP expression with a FACScan flow cytometer (BD, Franklin Lakes, N.J., USA) (Aster et al., Mol. Cell. Biol. 2000; 20:7505-7515). After viral infection, GFP-positive cells were sorted by flow cytometry with a FACSAria II (BD, Franklin Lakes, N.J., USA). […] Therefore, JQ-FT can recapitulate the Thapsigargin effect with the delivery mechanism of folate.
as §4
The effects of JQ-FT in a panel of T-ALL cell lines that contain activating mutations in the HD domain of NOTCH1 and/or protein stabilizing deletions within the PEST degradation domain.

[4] = LCMS analysis of cell lysate and media; format: in vitro ADME; settings: only after cells were treated with FT
Procedure: In order to validate the delivery of the Thap-OH, LCMS analysis of the cell lysate and the media was used to detect the presence of both Folate-Thap (FT) and Thap-OH. […] To directly visualize the folate delivery of a small molecule, folic acid derivatives with appended fluorophores were designed. Both Folate-FITC, suitable for flow cytometry studies, and Folate-TMARA, suitable for high-throughput fluorescence plate readers, were evaluated in vitro to determine the delivery mechanism.

T-ALL cell lines [5] = assay: Uptake of fluorescent folate probes by flow cytometry in T-ALL cells; format: cell-based, human
Description: To assess functional engagement of the folate receptor on T-ALL cells, we generated fluorescence-ragged folic acid probes. FL-TAMRA and FL-FITC, as tool compounds (FIG. 7, panel c). […] Taken together, these observations indicate that functional FR2 expression is increased in T-ALL compared to normal cells, further supporting a rationale for folate-mediated delivery in leukemia.
To explore the mechanism of binding and delivery of folate-conjugates in T-ALL, we performed competition and temperature sensitivity studies of the FL-FITC probe. The T-ALL cell Sine RPMI 8402 was engineered to overexpress either FR1 or FR2 and was then treated with increasing concentrations of FL-FITC. […] We next addressed whether folic acid could compete with the FL-FITC probe for uptake. T-ALL cells were grown in medium depleted of folic acid for 48 hours, treated with FL-FITC (1 or 10 μM), and assessed by flow cytometry. […]
In order to validate the delivery of the Thap-OH, LCMS analysis of the cell lysate and the media was used to detect the presence of both Folate-Thap (FT) and Thap-OH. […] Both Folate-FITC, suitable for flow cytometry studies, and Folate-TMARA, suitable for high-throughput fluorescence plate readers, were evaluated in vitro to determine the delivery mechanism.

C/C=C(/C)C(=O)O[C@H]1C(C)=C2[C@H]([C@@H]1OC(=O)CCCCCCC)[C@@](C)(OC(C)=O)C[C@H](O)[C@@]1(O)[C@H]2OC(=O)[C@@]1(C)O [Thap-OH, 8-O-debutanoylthapsigargin]
furin-processed transmembrane NOTCH1 subunit (TM-N1) level (NOTCH1 [1]; T-ALL cell lines with HD mutations, 24 h, Thap-OH at 1 μM): reduced the levels of the furin-processed transmembrane NOTCH1 subunit
ICN1 level (NOTCH1 [1]; T-ALL cell lines, 24 h): decreased ICN1 levels
unprocessed full-length NOTCH1 (FL-N1) level (NOTCH1 [1]; T-ALL cell lines, 24 h): not the unprocessed full-length NOTCH1 precursor
activity on NOTCH1 processing relative to JQ-FT (NOTCH1 [1]; T-ALL cell lines, 24 h treatment): much lower activity
NOTCH1 maturation in NOTCH1 WT cell lines (NOTCH1 [1]; WT cell lines (Loucy, MOLT16), concentrations tested): no effect on NOTCH1 maturation in the WT cell lines
FR2 expression (FR2): No change in FR2 expression
competition with biotinylated thapsigargin for SERCA2 (SERCA2): competed off biotinylated thapsigargin
competition with biotinylated thapsigargin for SERCA3 (SERCA3): competed off biotinylated thapsigargin
effect on cell surface NOTCH1 compared with thapsigargin (NOTCH1 [2]): less potent than the natural product; also recorded: reduced effect
NOTCH1 expression on the cell surface (NOTCH1 [2]): concentration-dependent reduction in NOTCH1 expression on the cell surface; also recorded: show NOTCH loss
T-ALL cell viability (T-ALL cell lines [3]; Thap-OH, dose-ranging ATP content assays): decrease in T-ALL cell viability
sensitivity of NOTCH1 mutant versus WT T-ALL cells (T-ALL cell lines [3]; mutated (ALL/SIL, DND41, PF382, RPMI 8402) vs WT (Loucy, MOLT16, SUPT11)): mutant T-ALL cells were more sensitive to the effects of Thap-OH than NOTCH1 WT cells
detection of released Thap-OH in cell lysate [4]: detected in cell lysate

CCCCC[C@@H](O)[C@H]1C(=O)O[C@H](C)[C@@H](O)/C=C/C=C/C=C/C=C/C=C(\C)[C@@H](O)C[C@H](O)C[C@H](O)C[C@H](O)C[C@H](O)C[C@H](O)C[C@@H]1O [filipin]
mean percentage reduction of FITC fluorescence signal (T-ALL cell lines [5]; four T-ALL cell lines pretreated with 10 μM filipin, 10 μM FL-FITC): 38.9±2.5 percentage

Nc1nc2ncc(CNc3ccc(C(=O)N[C@@H](CCC(=O)O)C(=O)O)cc3)nc2c(=O)[nH]1 [folic acid]
competition of free folic acid with folate derivatives for uptake (T-ALL cell lines [5]; free folic acid added to T-ALL culture): competed away the folate derivatives; also recorded: competes with folate-FITC

C/C=C(/C)C(=O)O[C@H]1C(C)=C2[C@H]([C@@H]1OC(=O)CCCCCCC)[C@@](C)(OC(C)=O)C[C@H](OC(=O)CCC)[C@@]1(O)[C@H]2OC(=O)[C@@]1(C)O [thapsigargin, Thapsigargin, reference compound]
NOTCH1 expression on the cell surface (NOTCH1 [2]): concentration-dependent reduction in NOTCH1 expression on the cell surface
